Literature values as cited in patent US20050260283A1, “Composition for prevention and treatment of colon adenomas” (Medical Futures Inc., priority 2004, published 2005).

Experiments:
colorectal cancer = conditions: regular aspirin use; epidemiological studies (Krishnan, 1997)
colorectal adenomas = conditions: calcium supplementation; volunteers with a history of colorectal adenomas (Baron, 1999)

CC(=O)Oc1ccccc1C(=O)O [aspirin]
reduction in the incidence of colorectal cancer (colorectal cancer): 40-50%

O=C([O-])[O-].[Ca+2] [calcium carbonate]
risk of recurrent colorectal adenomas (colorectal adenomas): moderate but significant reduction
